Data on 11 compounds can be found in patent US20130324545A1, “METHODS FOR THE REGULATION OF THE PROSTAGLANDIN F SYNTHASE (PGFS) ACTIVITY OF AKR1B1 AND USES THEREOF” (UNIVERSITE LAVAL, priority 2007, published 2013).

Where two headings read alike, the source gives them in different places.

Series [1] has as its target T1, AKR1B1 (Homo sapiens, UniProt P15121).
T1 construct: endogenous in cells; host or cells: 'our cellular model'
Nature of the series: Effect of ASA / COX inhibitors on AKR1B1 expression and PGF synthase activity in cells expressing AKR1B1. The series is classed as cell-based. Here is the method: (§1) Western blot analysis was performed with approximately 20 μg total proteins from cultured cells on a 10% SDS-PAGE gel, followed by electro-transfer onto nitrocellulose membrane. The primary antibodies used for the present study were rabbit AKR1B1 (dilution 1:1000) and COX-2 (dilution 1:10 000) anti-sera and goat AKR1C3 (dilution 1:500) anti-serum. A β-actin monoclonal antibody (1:5000, Sigma, Mississauga, Ontario, Canada) was used as an internal control. Goat anti-rabbit IgG conjugated with horseradish peroxidase (HRP) (Jackson Immunoresearch Laboratories, West Grove, Pa., USA), rabbit anti-goat IgG HRP and goat anti-mouse IgG HRP were used as secondary antibodies. Chemiluminescence was analyzed with autoradiography films at optimal times of exposure following treatment of the membranes with Renaissance™ reagent (NEN Life Science Products, Boston, Mass., USA).

The test system of series [2] is human endometrial epithelial (HIEEC) cells. Nature of the series: PGF2α and PGE2 production and enzyme expression in endometrial epithelial HIEEC cells stimulated with IL-1β (ELISA, Western blot). The series is classed as cell-based. Conditions: for IC50: Homo sapiens; for PGF2α production / expression of PGF2α biosynthetic enzymes (AKR1B1, COX-1, COX-2): increasing doses of cytokine, HIEEC. As for the experimental part: as §1
(§2) For cell culture transfection, immortalized human endometrial stromal cells (HIESC-2) and epithelial cells(HIEEC-22) were cultured in RPMI 1640 without phenol red, containing 50 IU penicillin-streptomycin supplemented with 10% whole fetal bovine serum (FBS). Ten percent dextran-coated charcoal-extracted FBS was used once cells have reached confluency. Knock-down and knock-in transfections of cells with AKR1B1 specific siRNA, AKR1B1 or AKRIC3 cDNAs in pCR3.1 expression vectors were performed with Lipofectamine™ 2000 for 4 hours in culture medium without antibiotic. Thirty-six hours after transfection (24 hours for siRNA transfection), cells were treated for 24 hours with recombinant human interleukin 1β (IL-1β) (1 ng/ml) (R&D Systems, Minneapolis, Minn., USA) or arachidonic acid (AA) 10 μM in RPMI 1640 medium without serum. At the end of the treatment period, the culture medium was recovered and stored at −20° C. until evaluation for PGF2α production.
(§3) Enzymatic immunoassay (EIA) was performed with an acetylcholinesterase-linked PGF2α tracer (Cayman) as described previously (Asselin et al., Biol Reprod 54(2); 371-9, 1996). Sheep anti-PGF2α (Bio-Quant, Ann Arbor, Mich., USA) was used as the selective antibody. Inter-assay and intra-assay coefficients of variations (n=12) were of 16% and 10% respectively. Statistical analysis was performed using ANOVA with Statview™ software (Abacus Concept, Calif.). Values were considered statistically significant for p<0.05.

For series [3], the system named is macrophages. Conditions: macrophages treated with endotoxines or lipopolysaccharides; cited from earlier work.
The subject of series [4] is human endometrial stromal (HIESC) cells. Nature of the series: PGF2α and PGE2 production and enzyme expression in endometrial stromal HIESC cells stimulated with IL-1β (ELISA, Western blot). Format: cell-based. The conditions noted are these: for PGE2 production in presence of PG receptor antagonist: IL-1β-stimulated stromal HIESC; for IC50: Homo sapiens, stromal HIESC cells stimulated by IL-1β, ELISA, range in brackets.

For series [5] the following is noted: diabetic subjects having neuropathies; cited from earlier work.
The subject of series [6] is primary human umbilical vein endothelial cells (HUVEC). Nature of the series: Effect of IL-1β and TNF-α on PGF2α, COX-2 and AKR1B1 in primary HUVEC. Conditions: for PGF2α production: ELISA; for COX-2 protein expression: endogenous AKR1B1 levels already high. Format: cell-based. An excerpt:
FIG. 22 comprises FIGS. 22A and 22B, with FIG. 22A illustrating the effect of IL-1β and TNF-α on the production of PGF2α by primary human umbilical vein endothelial cells (HUVEC), as measured by ELISA; and FIG. 22B illustrating the effect of IL-1β and TNF-α on the protein expression of COX-2 and AKR1B1 in primary HUVEC.

The subject of series [7] is primary human umbilical artery smooth muscle cells (HUASMC). Nature of the series: Effect of IL-1β on PGF2α, COX-2 and AKR1B1 in primary HUASMC. The series is classed as cell-based. From the text:
FIG. 20 comprises FIGS. 20A and 20B, with FIG. 20A illustrating the effect of IL-1β on the production of PGF2α by primary human umbilical artery smooth muscle cells (HUASMC), as measured by ELISA; and FIG. 20B illustrating the effect of IL-1β on the protein expression of COX-2 and AKR1B1 in primary HUASMC.

The subject of series [8] is primary human umbilical vein smooth muscle cells (HUVSMC). Nature of the series: Effect of IL-1β on PGF2α, COX-2 and AKR1B1 in primary HUVSMC. The series is classed as cell-based. An excerpt: FIG. 21 comprises FIGS. 21A and 21B, with FIG. 21A illustrating the effect of IL-1β on the production of PGF2α by primary human umbilical vein smooth muscle cells (HUVSMC), as measured by ELISA; and FIG. 21B illustrating the effect of IL-1β on the protein expression of COX-2 and AKR1B1 in primary HUVSMC.

The subject of series [9] is human endometrial stromal (HIESC) cells. Nature of the series: PGF2α and PGE2 production and enzyme expression in endometrial stromal HIESC cells stimulated with IL-1β (ELISA, Western blot). Conditions: increasing doses of cytokine. The series is classed as cell-based. Here is the method:
as §1, §2, §3

In series [10] the test system is human primary cardiomyocytes. Nature of the series: Effect of IL-1β and TNF-α on PGF2α, COX-2 and AKR1B1 in human primary cardiomyocytes (ELISA, Western blot). Format: cell-based. Conditions: for PGF2α production: FIG. 19, ELISA; for AKR1B1 and COX-2 protein expression: FIG. 19, Western blot. From the text: FIG. 19 comprises FIG. 19A, 19B, 19C and 19D, and illustrates the effect of IL-1β and TNF-α on the production of PGF2α (A), COX-2 (B) and AKR1B1 (C) by human primary cardiomyocytes, as measured by ELISA and Western blot. FIG. 19D illustrates β-actin levels of the three cells groups.
On the technique in general: ELISA stands for enzyme-linked immunosorbent assay.

Where [11] appears, read: read-out: IC50 PGF2α production.
The mark [12] stands for this setting: HIEEC cells stimulated by IL-1β, ELISA, range in brackets, read-out: IC50 PGE2 production.
Where [13] appears, read: HIEEC cells treated with IL-1β, ELISA, range in brackets, read-out: IC50 PGF2α production.

By IC50 is commonly meant the concentration that inhibits the measured activity by half. As to `CC(=O)Oc1ccccc1C(=O)O` [Aspirin, acetylsalicylic acid], the AKR1B1 gene expression entry in series [1] was “blocks”. Besides, the “inhibition of AKR1B1 protein” value in series [1] (1-5 mM, cellular model) is given as “dose-dependent inhibition”. In series [1] (cells expressing AKR1B1), the PGF synthase activity entry was “strongly reduced” and the “protein expression level of AKR1B1” value is given as “strongly reduced”. The IC50 in series [2] (setting [11]) worked out at 1940 nM.

For the compound `O=C1NC(=O)[C@@]2(CCOc3ccc(F)cc32)N1` [Sorbinil™], in series [3], the “production levels of PGE2” value is reported as “capable to reduce”.

On to `O=C(O)CCC/C=C\C[C@@H]1[C@@H](/C=C/[C@H](O)C2Cc3ccccc3C2)[C@@H](F)C[C@@H]1O` [AL8810], for which the “PGE2 production in presence of PG receptor antagonist” value in [4] is given as “induced a reduction in PGE2 production”; in series [4] (listed as AL 8810), “reduced PGE2 production”; in series [2] (IL-1β-stimulated epithelial HIEEC) it was “induced a reduction in PGE2 production”.

For `COc1ccc2c(C(=S)N(C)CC(=O)O)cccc2c1C(F)(F)F` [Tolrestat™], the side-effects result in series [5] is given as “undesirable hepatic side-effects”. The “production levels of PGE2” value in series [3] was “capable to reduce”.

For IL-1β: recombinant human interleukin 1β, the PGF2α production result was “stimulated” in series [6]; “stimulated” in series [7] (ELISA); “stimulated” in series [8] (ELISA); “increase in PGF2α production” in series [9]; “stimulated” in series [10]; “increase in PGF2α production” in series [2]. For the same compound, the COX-2 protein expression result in [6] is “stimulated”. The “AKR1B1 and COX-2 protein expression” value in series [7], in series [8] and in [10] was “stimulated” throughout. The “expression of PGF2α biosynthetic enzymes (AKR1B1, COX-1, COX-2)” value (“expression of PGF2α biosynthetic enzymes” for short) in series [9] is “only of COX-2”; in series [2] it was “significant increase in expression of AKR1B1, COX-1 and COX-2”. Also, in series [2] (HIEEC-22, 1 ng/ml, Western blot), the “AKR1C3 protein expression level” value was “no effect”.

Turning to TNF-α, in series [6], the PGF2α production result was “stimulated” and the COX-2 protein expression entry is given as “stimulated”. Also, in [9], the PGF2α production result was “increase in PGF2α production”; the “expression of PGF2α biosynthetic enzymes” value is “significant increase in expression of AKR1B1, COX-1 and COX-2”. In addition, in series [10], the PGF2α production result is reported as “stimulated”; the “AKR1B1 and COX-2 protein expression” value is recorded as “stimulated”. Further, in series [2], the PGF2α production result is on record as “increase in PGF2α production”; the “expression of PGF2α biosynthetic enzymes” value is “significant increase in expression of AKR1B1, COX-1 and COX-2”.

Consider `O=C(O)Cc1nn(Cc2nc3cc(C(F)(F)F)ccc3s2)c(=O)c2ccccc12` [Zopolrestat™], for which the side-effects entry in series [5] is “undesirable hepatic side-effects”. In addition, the “production levels of PGE2” value in series [3] is reported as “capable to reduce”.

For `CS(=O)(=O)Nc1ccc([N+](=O)[O-])cc1OC1CCCCC1` [NS-398], the “inhibition of PGF2α production” value in series [2] (COX-1-expressing HIEEC, IL-1β) is “did not completely inhibited”.

Regarding `CS(=O)(=O)c1ccc(C2=C(c3ccccc3)C(=O)OC2)cc1` [rofecoxib], the AKR1B1 gene expression result in series [1] is “do not influence”. In addition, the “inhibits production of PGE2 more efficiently than production of PGF2α” value in [2] (HIEEC cells stimulated with IL-1β) was “ten times more efficiently”. The IC50 in series [2] (setting [12]) amounted to 51.7 nM; in [2] (setting [13]), 201 nM. Moreover, the PGF2α/PGE2 ratio result in [2] (at 10 μM) is “strong alteration of the PGF2α/PGE2 ratio in favor of PGF2α”.

Take `O=C(O)Cc1nn(Cc2ccc(Br)cc2F)c(=O)c2ccccc12` [Statil™]: the side-effects result in series [5] is on record as “undesirable hepatic side-effects”.

On to `COc1ccc2cc([C@H](C)C(=O)O)ccc2c1` [naproxen], for which the IC50 is 62.6 nM in series [4] (read-out: IC50 PGE2 production), 43.8 nM in series [4] (setting [11]), 142 nM in series [2] (setting [12]) and 4.62 nM in series [2] (setting [13]). The “inhibition of PGF2α versus PGE2 production, comparison of IC50” value in series [4] (endometrial stromal cells (only express COX-2)) is reported as “comparable IC50”. For the same compound, in series [2] (HIEEC cells stimulated by IL-1β), the “potency for inhibition of PGF2α production compared with Aspirin” value is reported as “more potent than Aspirin™”. The PGF2α/PGE2 ratio entry in series [2] (at 10 nM) is “strong alteration of the PGF2α/PGE2 ratio in favor of PGE2”. Moreover, the “inhibits PGF2α more efficiently than PGE2” value in series [2] (endometrial epithelial cells (express COX-1 and COX-2)) came to 100 times.
